# Measurements published in ChEMBL document CHEMBL1201862, “PubChem BioAssay data set” (2004).
# The source made the active and inactive calls.
# Key:
# Prothrombin = Prothrombin (Homo sapiens, UniProt P00734); test: Thrombin 1536 HTS Dose Response Confirmation. [Related pubchem assays: 1046 (Thrombin 1536 HTS; hits were confirmed in this assay)]; format: functional
# P388/ADR = test: cells; format: functional; settings: Mus musculus
# SN12K1 = test: cells; format: functional; settings: Homo sapiens
# P388 = test: cells; format: functional; settings: Mus musculus
# BJ [1] = test: BJ-TERT fibroblast viability loss – cell-based, RAS-independent, luminescence, dose response (AID 1933); format: functional; settings: Homo sapiens
# BJ [2] = test: cells; format: functional, cell-based; settings: Homo sapiens
# [3] = microbe, parasite or virus in culture; format: functional; settings: Mycobacterium tuberculosis
# BJ [4] = test: BJ-TERT-LT-ST fibroblast viability loss – cell-based, RAS-independent, luminescence, dose response (AID 1935); format: functional; settings: Homo sapiens;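 also: BJ fibroblasts immortalized with TERT plus LT and ST oncogenes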
# [5] = DRD fibroblast viability loss – cell-based, non-viral oncogenic, luminescence, dose response (AID 1934); format: functional; settings: Homo sapiens
# BJ [6] = test: growth inhibition of engineered Ras-driven BJ cells – cell-based, alamar blue fluorescence, cherrypicked samples, dose response (AID 2631); format: functional; settings: Homo sapiens;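 also: confirmatory dose-response assay in RAS-dependent BJ fibroblasts engineered with TERT, LT and ST, with cytotoxicity read by fluorescence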
# INS1 = test: INS-1E survival protection against cytokine death – cell-based, luminescence, retest, dose response (AID 449756); format: functional; settings: Rattus norvegicus;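 also: cell death triggered by IL-1 beta plus TNF-alpha plus IFN-gamma mixture; protective hits raise ATP signal compared with cytokine alone wells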
# [7] = molecular target: T1, Mannose-6-phosphate isomerase (Homo sapiens, UniProt P34949); test: MPI inhibition at elevated mannose 6-phosphate – biochemical, fluorescence intensity, high mannose 6-phosphate, primary screen (AID 1220)
# T1 sequence (P34949 whole entry): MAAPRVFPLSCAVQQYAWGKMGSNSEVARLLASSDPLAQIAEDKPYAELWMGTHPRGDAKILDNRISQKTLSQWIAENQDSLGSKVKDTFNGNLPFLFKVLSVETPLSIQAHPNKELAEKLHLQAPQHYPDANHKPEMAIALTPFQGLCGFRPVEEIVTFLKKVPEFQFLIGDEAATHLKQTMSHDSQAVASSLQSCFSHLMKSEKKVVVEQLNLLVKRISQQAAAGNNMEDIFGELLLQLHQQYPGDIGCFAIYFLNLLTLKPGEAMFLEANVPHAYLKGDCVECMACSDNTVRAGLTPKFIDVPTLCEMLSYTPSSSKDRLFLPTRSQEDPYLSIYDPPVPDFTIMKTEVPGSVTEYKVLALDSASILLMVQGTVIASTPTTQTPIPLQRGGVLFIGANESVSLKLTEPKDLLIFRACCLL
# Caspase-3 = molecular target: T2, Caspase-3 (Homo sapiens, UniProt P42574); format: functional;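 also: Dose-response selectivity test against caspase-3 for candidate inhibitors of sentrin-specific proteases (SENPs)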
# T2 sequence (P42574 whole entry): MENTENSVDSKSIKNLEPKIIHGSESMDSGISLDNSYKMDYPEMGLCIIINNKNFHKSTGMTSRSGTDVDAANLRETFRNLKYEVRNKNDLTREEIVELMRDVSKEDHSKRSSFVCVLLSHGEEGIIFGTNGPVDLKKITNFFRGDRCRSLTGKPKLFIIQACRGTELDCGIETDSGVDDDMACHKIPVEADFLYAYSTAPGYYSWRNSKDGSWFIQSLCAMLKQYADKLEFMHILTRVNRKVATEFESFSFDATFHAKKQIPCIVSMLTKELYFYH
# [8] = molecular target: T3, Sentrin-specific protease 7 (Homo sapiens, UniProt Q9BQF6); format: functional;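 also: Luminescence-based dose-response confirmation of ultra-high-throughput screening hits, measuring inhibition of SENP7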
# T3 sequence (Q9BQF6 whole entry): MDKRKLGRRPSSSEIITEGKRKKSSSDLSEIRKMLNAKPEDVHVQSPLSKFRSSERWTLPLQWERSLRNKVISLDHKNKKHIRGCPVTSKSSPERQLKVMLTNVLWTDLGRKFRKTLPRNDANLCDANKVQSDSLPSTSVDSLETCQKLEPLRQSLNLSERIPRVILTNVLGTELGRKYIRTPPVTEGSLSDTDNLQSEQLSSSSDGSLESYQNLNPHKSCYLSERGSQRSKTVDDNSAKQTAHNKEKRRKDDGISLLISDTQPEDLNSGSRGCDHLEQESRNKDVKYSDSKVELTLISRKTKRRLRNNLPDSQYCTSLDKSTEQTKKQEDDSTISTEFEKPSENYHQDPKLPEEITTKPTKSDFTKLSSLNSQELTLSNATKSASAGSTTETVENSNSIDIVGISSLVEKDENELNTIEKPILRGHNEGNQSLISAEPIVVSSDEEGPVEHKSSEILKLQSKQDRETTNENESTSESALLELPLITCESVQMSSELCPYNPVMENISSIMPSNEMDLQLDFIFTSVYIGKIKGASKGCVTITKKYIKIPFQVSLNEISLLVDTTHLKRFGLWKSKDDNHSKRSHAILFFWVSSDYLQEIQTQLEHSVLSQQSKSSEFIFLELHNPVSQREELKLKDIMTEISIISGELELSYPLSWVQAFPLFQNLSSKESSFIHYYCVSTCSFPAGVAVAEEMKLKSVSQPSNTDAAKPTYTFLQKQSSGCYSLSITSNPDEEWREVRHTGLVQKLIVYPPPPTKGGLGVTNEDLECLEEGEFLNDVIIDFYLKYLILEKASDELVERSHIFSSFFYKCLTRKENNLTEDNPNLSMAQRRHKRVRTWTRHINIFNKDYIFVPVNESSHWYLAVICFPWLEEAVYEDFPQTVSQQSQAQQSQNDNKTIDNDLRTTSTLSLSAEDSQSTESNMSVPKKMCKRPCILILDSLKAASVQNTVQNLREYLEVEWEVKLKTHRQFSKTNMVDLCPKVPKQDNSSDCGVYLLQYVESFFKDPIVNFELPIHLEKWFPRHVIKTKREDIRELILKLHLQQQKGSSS
# [9] = molecular target: T4, Sentrin-specific protease 6 (Homo sapiens, UniProt Q9GZR1); format: functional;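 also: Luminescence-based dose-response confirmatory assay of SENP6 inhibition, following up an ultra-high-throughput screen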
# T4 sequence (Q9GZR1 whole entry): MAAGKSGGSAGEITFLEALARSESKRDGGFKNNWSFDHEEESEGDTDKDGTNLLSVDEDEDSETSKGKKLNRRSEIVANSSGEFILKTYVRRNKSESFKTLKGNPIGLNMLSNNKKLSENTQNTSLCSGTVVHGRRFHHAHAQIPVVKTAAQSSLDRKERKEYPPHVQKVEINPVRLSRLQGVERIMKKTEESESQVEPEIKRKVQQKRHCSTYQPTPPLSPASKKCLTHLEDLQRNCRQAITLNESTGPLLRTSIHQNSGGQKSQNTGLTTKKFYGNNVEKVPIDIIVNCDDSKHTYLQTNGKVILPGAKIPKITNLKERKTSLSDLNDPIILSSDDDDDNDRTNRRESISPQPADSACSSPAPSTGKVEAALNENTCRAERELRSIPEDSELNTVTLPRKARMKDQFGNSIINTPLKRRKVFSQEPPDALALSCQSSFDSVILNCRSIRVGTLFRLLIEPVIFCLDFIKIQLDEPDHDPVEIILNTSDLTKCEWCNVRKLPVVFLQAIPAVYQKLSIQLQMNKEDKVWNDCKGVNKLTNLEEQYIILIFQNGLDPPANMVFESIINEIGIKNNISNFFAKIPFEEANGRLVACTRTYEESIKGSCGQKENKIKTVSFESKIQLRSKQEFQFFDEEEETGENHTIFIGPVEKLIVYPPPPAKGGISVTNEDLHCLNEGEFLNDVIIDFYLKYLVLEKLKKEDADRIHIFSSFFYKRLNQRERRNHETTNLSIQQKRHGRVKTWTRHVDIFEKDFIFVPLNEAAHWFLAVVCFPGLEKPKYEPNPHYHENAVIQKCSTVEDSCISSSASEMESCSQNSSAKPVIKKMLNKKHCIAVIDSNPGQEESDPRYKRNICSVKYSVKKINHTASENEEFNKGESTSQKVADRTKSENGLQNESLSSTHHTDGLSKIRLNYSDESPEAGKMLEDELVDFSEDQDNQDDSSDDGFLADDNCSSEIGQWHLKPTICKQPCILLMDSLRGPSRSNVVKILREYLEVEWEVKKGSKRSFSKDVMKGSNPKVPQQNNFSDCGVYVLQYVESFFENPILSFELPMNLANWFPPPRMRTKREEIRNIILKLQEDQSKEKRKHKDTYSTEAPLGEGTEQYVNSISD
# [10] = molecular target: T5, Sentrin-specific protease 8 (Homo sapiens, UniProt Q96LD8); format: functional;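 also: luminescence read-out of SENP8 inhibition, dose-response confirmation following an ultra-high-throughput screen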
# T5 sequence (Q96LD8 whole entry): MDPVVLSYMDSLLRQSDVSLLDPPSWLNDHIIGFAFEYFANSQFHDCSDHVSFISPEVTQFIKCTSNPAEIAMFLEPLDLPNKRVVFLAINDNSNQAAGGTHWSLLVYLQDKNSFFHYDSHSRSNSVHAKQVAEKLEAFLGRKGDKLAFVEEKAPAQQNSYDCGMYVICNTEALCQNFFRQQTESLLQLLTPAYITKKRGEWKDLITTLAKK
# H4 = test: Luminescence Cell-Based Dose Response HTS to Identify Activators of 5'UTR Stem-Loop Driven Prion Protein mRNA Translation in H4 Neuroglioblastoma Cells. [Related pubchem assays: 1829 (Project Summary), 1814 (Primary HTS)]; format: functional; settings: Homo sapiens
# [11] = intracellular Trypanosoma cruzi inhibitors in host cells – cell-based, plate reader, cherry-pick samples, set 3, dose response (AID 651818); format: functional;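 also: compounds incubated with infected cells for about four days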
# [12] = viability of uninfected HEp-2 cells – cell-based, HTS, cytotoxicity control for RSV inhibitor project, dose response (AID 2410); format: functional; settings: human respiratory syncytial virus
compound,measurement,setting,value
Cc1ccc(OCC(=O)N2CCC(N3CCCCCC3)CC2)cc1,IC50,Prothrombin,> 50 µM (not active)
C=C(C)C(=O)O[C@H]1CC2=C[C@@H](C[C@@]3(C)O[C@@H]3[C@H]3OC(=O)C(=C)[C@@H]31)OC2=O [ELEPHANTOPIN],GI50,P388/ADR,0.166 µM (active)
same,GI50,SN12K1,4.73 µM (inactive)
same,GI50,P388,0.124 µM (active)
Cc1ccc(NS(=O)(=O)c2ccc(NC(=O)CN(c3cc([N+](=O)[O-])ccc3C)S(C)(=O)=O)cc2)c(C)c1,EC50,BJ [1],39.7 µM (active)
same,EC50,BJ [2],> 75 µM (not active)
same,CC50,[3],4.92 µM (active)
same,EC50,BJ [4],> 150 µM (inconclusive)
same,EC50,[5],> 75 µM (not active)
same,EC50,BJ [6],> 133 µM (inactive)
same,AC50,INS1,1.49 µM (active)
COc1cc(CN2CCN(c3ccccc3F)CC2)c([N+](=O)[O-])cc1OC,IC50,[7],> 50 µM (not active)
Cc1cccc(NC(=O)COc2ccc(Br)cc2C)n1,IC50,Caspase-3,13.9 µM (active)
same,IC50,[8],4.31 µM (active)
same,IC50,[9],9.12 µM (active)
same,IC50,[10],> 100 µM (inactive)
Cn1c(C(=O)Nc2ccc3c(c2)OCO3)cc2sccc21,EC50,H4,35 µM (active)
same,IC50,Caspase-3,14.4 µM (active)
same,IC50,[8],4.52 µM (active)
same,IC50,[9],16.1 µM (active)
same,IC50,[10],19.5 µM (active)
O=C(Cc1ccc(Cl)cc1)c1c[nH]c(C(=O)NCc2cccnc2)c1,EC50,BJ [1],11.3 µM (inconclusive)
same,EC50,BJ [2],6.96 µM (active)
same,EC50,BJ [4],> 150 µM (inconclusive)
same,EC50,[5],> 150 µM (not active)
same,EC50,BJ [6],4.8 µM (active)
same,AC50,INS1,0.907 µM (active)
Cc1ccc(NC(=O)CN(C)C(=O)COc2cccc3cccnc23)cc1,IC50,[7],44.5 µM (active)
CN1CCN(P2(=S)Oc3ccc4ccccc4c3-c3c(ccc4ccccc34)O2)CC1,GI50,P388/ADR,26.2 µM (inactive)
same,GI50,SN12K1,21.8 µM (inactive)
same,GI50,P388,24.1 µM (inactive)
COC1=C2CC(C)CC(OC)C(O)C(C)/C=C(\C)C(OC(N)=O)C(OC)/C=C\C=C(/C)C(=O)NC(=C(/C=N/C(C)(C)C)C1=O)C2=O (stereo not drawn),GI50,P388/ADR,3.72 µM (inactive)
same,GI50,SN12K1,3.64 µM (inactive)
same,GI50,P388,2.33 µM (inactive)
C[C@@H]1CN([C@H](C)CO)C(=O)Cc2cc(NC(=O)c3ccncc3)ccc2O[C@H]1CN(C)Cc1ccc(-c2ccccc2)cc1,AC50,[11],3.08 µM (active)
C[C@@H]1CN([C@H](C)CO)C(=O)Cc2cc(NS(=O)(=O)c3ccccc3)ccc2O[C@@H]1CN(C)Cc1ccc(Oc2ccccc2)cc1,AC50,[11],4.87 µM (active)
CC(C)=CCC/C(C)=C/CCC1(C)C=Cc2c(c3ccccc3oc2=O)O1 (stereo not drawn),GI50,P388/ADR,20.2 µM (inactive)
same,GI50,SN12K1,16.9 µM (inactive)
same,GI50,P388,15.2 µM (inactive)
C/C(=N\NS(=O)(=O)c1ccccc1)c1ccccc1,GI50,P388/ADR,> 100 µM (inactive)
same,GI50,SN12K1,> 100 µM (inactive)
same,GI50,P388,> 100 µM (inactive)
C[C@@H]1CN([C@@H](C)CO)C(=O)c2cc(NC(=O)Nc3ccc(C(F)(F)F)cc3)ccc2O[C@@H]1CN(C)S(=O)(=O)c1ccc(F)cc1,AC50,[11],4.21 µM (active)
CCN(Cc1ccncc1)Cc1c(O)ccc2cc(Br)ccc12,IC50,[7],> 50 µM (not active)
CCOC(=O)/C=C/c1c(C)[nH]c(=O)[nH]c1=O,GI50,P388/ADR,169 µM (inactive)
same,GI50,SN12K1,> 250 µM (inactive)
same,GI50,P388,158 µM (inactive)
C[C@@H]1CN([C@H](C)CO)C(=O)c2cccc(NC(=O)c3nc4ccccc4s3)c2O[C@H]1CN(C)Cc1ccc(C(=O)Nc2ccccc2N)cc1,AC50,[11],1.49 µM (active)
Nc1cc(Cl)nc(N/N=C/c2c(O)ccc3ccccc23)n1,IC50,Caspase-3,48 µM (active)
same,IC50,[8],5.83 µM (active)
same,IC50,[9],> 100 µM (inactive)
same,IC50,[10],> 100 µM (inactive)
Cc1ccc(S(=O)(=O)Nc2ccc3c(c2)CC(=O)N([C@H](C)CO)C[C@@H](C)[C@H](CN(C)Cc2ccc(C(=O)Nc4ccccc4N)cc2)O3)cc1,AC50,[11],2.94 µM (active)
S=C(N/N=C/c1ccc2ncccc2c1)Nc1ccccc1,CC50,[12],31.2 µM (active)
same,EC50,BJ [1],27.7 µM (active)
same,EC50,BJ [2],10.7 µM (active)
same,EC50,BJ [4],> 150 µM (inconclusive)
same,EC50,[5],14.3 µM (active)
same,EC50,BJ [6],> 133 µM (inactive)
COc1ccc(NC(=O)c2cccc(Oc3ccccc3)c2)cn1,IC50,Caspase-3,17.5 µM (active)
same,IC50,[8],4.98 µM (active)
same,IC50,[9],15.6 µM (active)
same,IC50,[10],16.4 µM (active)
